From patent publication US8993282B2, “Carotenoid fermentation method” (JX Nippon Oil & Energy Corporation, priority 2008, dated 2015)

System: Paracoccus carotinifaciens strain E-396 (FERM BP-4283)
Experiment: Glutamate concentration series, 5 L fermentation tank culture, carotenoid by HPLC
Assay type: cell-based
Settings: for Produced carotenoid concentration, 3-Hydroxyechinenone / Produced carotenoid concentration, Adonixanthin / Produced carotenoid concentration, Astaxanthin / Produced carotenoid concentration, Asteroidenone / Produced carotenoid concentration, Canthaxanthin / Produced carotenoid concentration, Echinenone / Produced carotenoid concentration, Phoenicoxanthin / Produced carotenoid concentration, Total Carotenoid / Produced carotenoid concentration, Zeaxanthin / Produced carotenoid concentration, β-Carotene / Produced carotenoid concentration, β-Cryptoxanthin: 100 hours
Experimental: In the examples, carotenoids were quantified by high performance liquid chromatography (HPLC) as follows.
Two columns of Wakosil-II 5 SIL-100 (φ4.6×250 mm) (Wako Pure Chemical Industries, Ltd., Japan) were connected to each other for use as a column. Elution was performed by flowing an n-hexane-tetrahydrofuran-methanol mixed solution (40:20:1), which was a mobile phase, at a flow rate of 1.0 mL/minute at a constant temperature around room temperature. The measurement was performed as follows. Samples were each dissolved in tetrahydrofuran and then diluted 100-fold with the mobile phase. Each dilution was injected in a volume of 20 μL. The column eluate was detected at a wavelength of 470 nm. As a reference for quantification, astaxanthin (SIGMA, Cat. No. A9335) was used. The astaxanthin concentration of the reference solution was determined using the following equation after measuring the absorbance (A) of the reference solution at 477 nm and the area percentage % (B) of the astaxanthin peak at the time of HPLC analysis under the above conditions. Astaxanthin concentration (mg/L)=A/2150×B×100
A medium of the following composition (glucose 20 g/L, filtered corn steep liquor 5 g/L, potassium dihydrogenphosphate 0.54 g/L, dipotassium hydrogenphosphate 12-hydrate 2.78 g/L, calcium chloride dihydrate 5.0 g/L, magnesium sulfate 7-hydrate 0.7 g/L, iron sulfate 7-hydrate 3.0 g/L, alcohol-based defoaming agent 0.2 g/L., pH 7.5) was dispensed in 100 ml volumes into 500 mL cotton-plugged Erlenmeyer flasks and sterilized in an autoclave at 121° C. for 15 minutes to prepare a flask medium for seed culture in 8 flasks.
Next, a medium of the following composition (glucose 40 g/L, corn steep liquor 30 g/L, ammonium sulfate 0.5 g/L, potassium dihydrogenphosphate 2.25 g/L, disodium hydrogenphosphate 12-hydrate 5.7 g/L, calcium chloride dihydrate 0.1 g/L, magnesium sulfate 7-hydrate 0.5 g/L, iron sulfate 7-hydrate 5 g/L, alcohol-based defoaming agent 0.5 g/L) was dispensed in 2.0 L volumes into 5 L fermentation tanks (8 tanks in total). To these tanks, monosodium L-glutamate monohydrate was added at 0, 1, 5, 15, 30, 50, 100 and 200 mmol/L, respectively, followed by sterilization in an autoclave at 121° C. for 30 minutes.
A loopful of Paracoccus carotinifaciens strain E-396 (FERM BP-4283) was inoculated into the flask medium for seed culture and then cultured with rotary shaking at 29° C. for 2 days at 100 rpm. The resulting culture solution was then inoculated in 80 mL, volumes into the individual fermentation tanks, followed by aerobic culture at 29° C. at an aeration volume of 1 vvm for 100 hours. To maintain a pH of 7.2 during culture, the pH was continuously controlled with 15% aqueous ammonia. Glucose was added in an amount of 30 g on day 1 and day 2 of culture to prevent glucose depletion. In addition, the minimum number of agitation rotations was set to 200 rpm, and the number of agitation rotations was varied such that the dissolved oxygen concentration in the culture solution was maintained at 2 to 4 ppm. Bubbling was detected with a bubble sensor and suppressed by automatic addition of an alcohol-based defoaming agent.
At the completion of culture, each culture solution was measured for its carotenoid concentration by HPLC.

[1] = Glutamic acid concentration 1 mmol/L
[2] = Glutamic acid concentration 5 mmol/L
[3] = Glutamic acid concentration 15 mmol/L
[4] = Glutamic acid concentration 30 mmol/L
[5] = Glutamic acid concentration 50 mmol/L
[6] = Glutamic acid concentration 100 mmol/L
[7] = Glutamic acid concentration 200 mmol/L

N[C@@H](CCC(=O)O)C(=O)O [Glutamic acid, glutamic acid]
Produced carotenoid concentration, 3-Hydroxyechinenone [1]: 0.2 mg/L
Produced carotenoid concentration, Adonixanthin [1]: 7.8 mg/L
Produced carotenoid concentration, Astaxanthin [1]: 18.3 mg/L
Produced carotenoid concentration, Asteroidenone [1]: 0.4 mg/L
Produced carotenoid concentration, Canthaxanthin [1]: 2.0 mg/L
Produced carotenoid concentration, Echinenone [1]: 1.6 mg/L
Produced carotenoid concentration, Phoenicoxanthin [1]: 5.1 mg/L
Produced carotenoid concentration, Total Carotenoid [1]: 39.9 mg/L
Produced carotenoid concentration, Zeaxanthin [1]: 0.17 mg/L
Produced carotenoid concentration, β-Carotene [1]: 4.3 mg/L
Produced carotenoid concentration, β-Cryptoxanthin [1]: 0.05 mg/L
Produced carotenoid concentration, 3-Hydroxyechinenone [2]: 0.3 mg/L
Produced carotenoid concentration, Adonixanthin [2]: 7.8 mg/L
Produced carotenoid concentration, Astaxanthin [2]: 27.3 mg/L
Produced carotenoid concentration, Asteroidenone [2]: 0.4 mg/L
Produced carotenoid concentration, Canthaxanthin [2]: 3.7 mg/L
Produced carotenoid concentration, Echinenone [2]: 1.9 mg/L
Produced carotenoid concentration, Phoenicoxanthin [2]: 7.8 mg/L
Produced carotenoid concentration, Total Carotenoid [2]: 55.7 mg/L
Produced carotenoid concentration, Zeaxanthin [2]: 0.18 mg/L
Produced carotenoid concentration, β-Carotene [2]: 6.2 mg/L
Produced carotenoid concentration, β-Cryptoxanthin [2]: 0.07 mg/L
Produced carotenoid concentration, 3-Hydroxyechinenone [3]: 0.3 mg/L
Produced carotenoid concentration, Adonixanthin [3]: 9.6 mg/L
Produced carotenoid concentration, Astaxanthin [3]: 30.8 mg/L
Produced carotenoid concentration, Asteroidenone [3]: 0.6 mg/L
Produced carotenoid concentration, Canthaxanthin [3]: 3.0 mg/L
Produced carotenoid concentration, Echinenone [3]: 2.1 mg/L
Produced carotenoid concentration, Phoenicoxanthin [3]: 7.2 mg/L
Produced carotenoid concentration, Total Carotenoid [3]: 59.7 mg/L
Produced carotenoid concentration, Zeaxanthin [3]: 0.19 mg/L
Produced carotenoid concentration, β-Carotene [3]: 5.8 mg/L
Produced carotenoid concentration, β-Cryptoxanthin [3]: 0.07 mg/L
Produced carotenoid concentration, 3-Hydroxyechinenone [4]: 0.3 mg/L
Produced carotenoid concentration, Adonixanthin [4]: 9.3 mg/L
Produced carotenoid concentration, Astaxanthin [4]: 30.3 mg/L
Produced carotenoid concentration, Asteroidenone [4]: 0.6 mg/L
Produced carotenoid concentration, Canthaxanthin [4]: 3.1 mg/L
Produced carotenoid concentration, Echinenone [4]: 2.2 mg/L
Produced carotenoid concentration, Phoenicoxanthin [4]: 7.4 mg/L
Produced carotenoid concentration, Total Carotenoid [4]: 59.4 mg/L
Produced carotenoid concentration, Zeaxanthin [4]: 0.20 mg/L
Produced carotenoid concentration, β-Carotene [4]: 5.9 mg/L
Produced carotenoid concentration, β-Cryptoxanthin [4]: 0.08 mg/L
Produced carotenoid concentration, 3-Hydroxyechinenone [5]: 0.4 mg/L
Produced carotenoid concentration, Adonixanthin [5]: 10.8 mg/L
Produced carotenoid concentration, Astaxanthin [5]: 30.9 mg/L
Produced carotenoid concentration, Asteroidenone [5]: 0.9 mg/L
Produced carotenoid concentration, Canthaxanthin [5]: 2.0 mg/L
Produced carotenoid concentration, Echinenone [5]: 2.3 mg/L
Produced carotenoid concentration, Phoenicoxanthin [5]: 6.4 mg/L
Produced carotenoid concentration, Total Carotenoid [5]: 58.9 mg/L
Produced carotenoid concentration, Zeaxanthin [5]: 0.21 mg/L
Produced carotenoid concentration, β-Carotene [5]: 4.9 mg/L
Produced carotenoid concentration, β-Cryptoxanthin [5]: 0.07 mg/L
Produced carotenoid concentration, 3-Hydroxyechinenone [6]: 0.3 mg/L
Produced carotenoid concentration, Adonixanthin [6]: 9.2 mg/L
Produced carotenoid concentration, Astaxanthin [6]: 28.6 mg/L
Produced carotenoid concentration, Asteroidenone [6]: 0.6 mg/L
Produced carotenoid concentration, Canthaxanthin [6]: 2.8 mg/L
Produced carotenoid concentration, Echinenone [6]: 2.0 mg/L
Produced carotenoid concentration, Phoenicoxanthin [6]: 7.0 mg/L
Produced carotenoid concentration, Total Carotenoid [6]: 56.2 mg/L
Produced carotenoid concentration, Zeaxanthin [6]: 0.18 mg/L
Produced carotenoid concentration, β-Carotene [6]: 5.5 mg/L
Produced carotenoid concentration, β-Cryptoxanthin [6]: 0.06 mg/L
Produced carotenoid concentration, 3-Hydroxyechinenone [7]: 0.3 mg/L
Produced carotenoid concentration, Adonixanthin [7]: 7.6 mg/L
Produced carotenoid concentration, Astaxanthin [7]: 23.5 mg/L
Produced carotenoid concentration, Asteroidenone [7]: 0.5 mg/L
Produced carotenoid concentration, Canthaxanthin [7]: 2.4 mg/L
Produced carotenoid concentration, Echinenone [7]: 1.7 mg/L
Produced carotenoid concentration, Phoenicoxanthin [7]: 5.9 mg/L
Produced carotenoid concentration, Total Carotenoid [7]: 46.7 mg/L
Produced carotenoid concentration, Zeaxanthin [7]: 0.15 mg/L
Produced carotenoid concentration, β-Carotene [7]: 4.6 mg/L
Produced carotenoid concentration, β-Cryptoxanthin [7]: 0.05 mg/L
produced carotenoid concentration compared to the sample without glutamic acid (glutamic acid at concentrations from 1 to 200 mmol/L): higher produced carotenoid concentration
